# Source: paper PMC8062632, “Structural studies of phosphorylation-dependent interactions between the V2R receptor and arrestin-2” (Nature Communications, 2021)
# Key:
# Test in all cases: FlAsH-BRET recruitment of c-Raf-1 to arrestin2
# Format in all cases: cell-based
# [1] = system: V2R-6-7 (V2R-S363A/S364A); conditions: HEK293 cells; for ΔBRET ratio, c-Raf-1 recruitment to arrestin2: V2R-6-7, Argipressin 10 μM, 37 °C, 10 min
# Protocol: (§1) The interaction between arrestin2 and c-Raf-1 was measured by the FlAsH-BRET method. […] Data are expressed as relative values of ΔBRET ratio with the mean ± SEM of three independent experiments (n = 3). […] Source data are provided in the Source. Data file.
# (§2) After 24 h of transfection, the cells were detached and distributed into 96-well plates at a density of ~25,000 cells per well. After another 24 h incubation at 37 °C, the cells were labeled FlAsH-EDT2 for 40 min at 37 °C and washed twice with Tyrode’s buffer (140 mM NaCl, 2.7 mM KCl, 1 mM CaCl2, 12 mM NaHCO3, 5.6 mM D-glucose, 0.5 mM MgCl2, 0.37 mM NaH2PO4, and 25 mM HEPES, pH = 7.4) and stimulated with or without Argipressin (final concentration of 10 μM) at 37 °C for 10 min Luciferase substrate coelenterazine-h was added at a final concentration of 5 μM before light emissions were recorded using a Mithras LB940 microplate reader (Berthold Technologies) equipped with BRET filter sets. The BRET signal was determined by calculating the ratio of the light intensity emitted by YFP ([…]) over the light intensity emitted by Rluc ([…]). Source data are provided in a Source Data file.
# V2R-WT = conditions: HEK293 cells, Argipressin 10 μM, 37 °C, 10 min
# Protocol: as §1, §2
# V2R-3 (V2R-S357A) = conditions: HEK293 cells, Argipressin 10 μM, 37 °C, 10 min
# Protocol: as §1, §2
# V2R-4 (V2R-T360A) = conditions: HEK293 cells, Argipressin 10 μM, 37 °C, 10 min
# Protocol: as §1, §2
substance,measurement,setting,value
vasopressin,vasopressin-induced interaction between c-Raf-1 and arrestin2,"[1]; S363A-S364A mutations in V2R, in words",abolished
same,"ΔBRET ratio, c-Raf-1 recruitment to arrestin2",[1]; Data1,0
same,"ΔBRET ratio, c-Raf-1 recruitment to arrestin2",[1]; Data2,0.001
same,"ΔBRET ratio, c-Raf-1 recruitment to arrestin2",[1]; Data3,0
same,"ΔBRET ratio, c-Raf-1 recruitment to arrestin2",V2R-WT; Data1,0.014
same,"ΔBRET ratio, c-Raf-1 recruitment to arrestin2",V2R-WT; Data2,0.012
same,"ΔBRET ratio, c-Raf-1 recruitment to arrestin2",V2R-WT; Data3,0.015
same,"ΔBRET ratio, c-Raf-1 recruitment to arrestin2",V2R-3 (V2R-S357A); Data1,0.005
same,"ΔBRET ratio, c-Raf-1 recruitment to arrestin2",V2R-3 (V2R-S357A); Data2,0.005
same,"ΔBRET ratio, c-Raf-1 recruitment to arrestin2",V2R-3 (V2R-S357A); Data3,0.006
same,"ΔBRET ratio, c-Raf-1 recruitment to arrestin2",V2R-4 (V2R-T360A); Data1,0.001
same,"ΔBRET ratio, c-Raf-1 recruitment to arrestin2",V2R-4 (V2R-T360A); Data2,0.001
same,"ΔBRET ratio, c-Raf-1 recruitment to arrestin2",V2R-4 (V2R-T360A); Data3,0
